# Measurements from patent US8609680B2, “2,3-dihydro-1H-inden-1-yl-2,7-diazaspiro[3.5] nonane derivatives” (Pfizer Inc., priority 2010, dated 2013).
# Where two headings read alike, the source gives them in different places.
# Assays:
# [1] = molecular target: T1, human GHSR1a (Homo sapiens, UniProt Q92847); test: Human Ghrelin SPA Binding Assay
# T1 construct: expressed in transfected cells; host or cells: HEK293 Tetracycline-Inducible cell line, used as membranes
# Excerpt: The SPA format was utilized for high throughput screening of test compounds and filter binding served for more comprehensive binding characterization.
# Human Ghrelin SPA Binding Assay
# [2] = molecular target: T1, human GHSR1a; test: Human Ghrelin Functional Assay (DELFIA GTP-binding assay); format: biochemical; conditions: GTP-Europium exchange, human GHSR1a membranes, with and without ghrelin at EC80
# Experimental: Human Ghrelin Functional Assay
# To measure the ability of test compounds in the present invention to modulate the activity of human GHSR1a (agonize, antagonize, partially agonize, inversely agonize), a DELFIA GTP-binding assay (Perkin Elmer, AD0260 and AD0261) is performed. The assay monitors the ligand-dependent exchange of GDP for GTP. GPCR activation results in an increase in fluorescence as receptor-bound GDP is replaced by Europium-labeled GTP.
# Ghrelin functional assays are performed in a final volume of 39.5 μl containing 720 ng human GHSR1a (HEK293 Tetracycline-Inducible cell line expressing the human growth secretagogue receptor la, prepared as membranes), 9 nM GTP-Europium and varying concentrations of test compound or vehicle. To test for receptor antagonism, membranes are incubated in the presence of agonist ghrelin (Anaspec, 24158) at the EC80 concentration, plus test compound or vehicle.
# Briefly, test compounds are prepared at room temperature in 384-well plates (Matrix, 4340). […] Samples are then transferred as 6 μl to 384-well filter plates (Pall, 5071) containing 30 μl of 24 μg/ml hGHSR1a membrane and 0.35 mg/ml saponin (Perkin Elmer, AD0261) in basal buffer.
# The mixture is incubated 24 minutes at room temperature with gentle shaking, followed by the addition of 3.5 μl of 100 nM GTP-Europium in 50 mM HEPES, pH 7.4. Samples are shielded from light and incubated for 90 minutes further at room temperature with gentle shaking. The reactions are suctioned dry with vacuum, washed three times with 75 μl ice cold 1× GTP Wash Solution (Perkin Elmer, AD0261), and immediately read on the Envision 2101 Multilabel Reader (Perkin Elmer) using excitation filter 320 nm and emission filter 615 nm.
# [3] = SPA format, [125I] ghrelin displacement, human GHSR1a membranes, Ki=IC50/(1+[ligand]/Kd)
# T1 sequence (Q92847 whole entry): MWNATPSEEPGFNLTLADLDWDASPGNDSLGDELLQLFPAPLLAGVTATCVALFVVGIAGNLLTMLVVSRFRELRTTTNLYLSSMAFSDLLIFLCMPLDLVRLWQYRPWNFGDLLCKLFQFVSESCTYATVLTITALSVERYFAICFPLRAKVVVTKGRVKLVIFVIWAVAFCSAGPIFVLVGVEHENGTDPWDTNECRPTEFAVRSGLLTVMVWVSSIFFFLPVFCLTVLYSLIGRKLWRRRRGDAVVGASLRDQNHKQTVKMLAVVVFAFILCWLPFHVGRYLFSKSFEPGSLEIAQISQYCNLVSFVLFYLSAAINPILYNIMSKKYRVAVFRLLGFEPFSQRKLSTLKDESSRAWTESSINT
"Ki [1, 3]",functional comment [2],IC50 [1],Ki [1],Molecule,"IC50 ([1]; SPA format, [125I] ghrelin displacement, human GHSR1a membranes from HEK293 Tetracycline-Inducible cell line)"
,inverse agonist,13.7 nM,38 nM,COc1ccc(CC(=O)N2CCC3(CC2)CN(C2CCc4cc(-c5cc(C#N)ccn5)ccc42)C3)nc1 (racemic) [Example 2C],
,inverse agonist,35.9 nM,50.2 nM,COc1ccc(CC(=O)N2CCC3(CC2)CN(C2CCc4cc(-c5cc(OC)ncn5)ccc42)C3)nc1 (racemic) [Example 2F],
,inverse agonist,92.2 nM,218 nM,COc1ccc(CC(=O)N2CCC3(CC2)CN(C2CCc4cc(-c5cnccn5)ccc42)C3)nc1 (racemic) [Example 2H],
,inverse agonist,15.3 nM,51.2 nM,COc1ccc(CC(=O)N2CCC3(CC2)CN(C2CCc4cc(-c5nc(C)cc(C)n5)ccc42)C3)nc1 (racemic) [Example 2I],
,inverse agonist,22 nM,,COc1ccc(CC(=O)N2CCC3(CC2)CN(C2CCc4cc(-c5cccc(C)n5)ccc42)C3)nc1 (racemic) [Example 2J],
,inverse agonist,22.7 nM,91.3 nM,"COc1ccc(CC(=O)N2CCC3(CC2)CN(C2CCc4cc(-c5ccc(OC)cn5)ccc42)C3)nc1 (centres unmarked) [Example 2A, 7-[(5-Methoxypyridin-2-yl)acetyl]-2-[5-(5-methoxypyridin-2-yl)-2,3-dihydro-1H-inden-1-yl]-2,7-diazaspiro[3.5]nonane]",
9.03 nM,inverse agonist,9.46 nM,,"CCc1cnc(-c2ccc3c(c2)CC[C@H]3N2CC3(CCN(C(=O)Cc4ccc(OC)cn4)CC3)C2)nc1 [Example 3A, 2-[(1R)-5-(5-Ethylpyrimidin-2-yl)-2,3-dihydro-1H-inden-1-yl]-7-[(5-methoxypyridin-2-yl)acetyl]-2,7-diazaspiro[3.5]nonane]",
,inverse agonist,9.8 nM,8.59 nM,CCc1cc(-c2ccc3c(c2)CC[C@H]3N2CC3(CCN(C(=O)Cc4ccc(OC)cn4)CC3)C2)ncn1 [Example 3AA],
,inverse agonist,19.5 nM,15.5 nM,COc1ccc(CC(=O)N2CCC3(CC2)CN([C@@H]2CCc4cc(-c5ncco5)ccc42)C3)cc1 [Example 3AD],
,inverse agonist,7.41 nM,6.13 nM,O=C(Cc1ccc(C2CC2)cn1)N1CCC2(CC1)CN([C@@H]1CCc3cc(-c4ncccn4)ccc31)C2 [Example 3AF],
,inverse agonist,7.73 nM,6.91 nM,Cc1cc(C)nc(-c2ccc3c(c2)CC[C@H]3N2CC3(CCN(C(=O)Cc4cn5nc(C)sc5n4)CC3)C2)n1 [Example 3AL],
,inverse agonist,16.6 nM,14.9 nM,Cc1cnc(-c2ccc3c(c2)CC[C@H]3N2CC3(CCN(C(=O)Cc4cn5nc(C)sc5n4)CC3)C2)nc1 [Example 3AN],
,,49.3 nM,43.3 nM,CCc1ccc(CC(=O)N2CCC3(CC2)CN([C@@H]2CCc4cc(-c5ccc(C(N)=O)cc5)ccc42)C3)nc1 [Example 4C],
,,20.1 nM,17.5 nM,COc1ccc(CC(=O)N2CCC3(CC2)CN([C@@H]2CCc4cc(-c5ccc(C(N)=O)cc5)ccc42)C3)nc1 [Example 4D],
,,42.6 nM,36.8 nM,NC(=O)c1ccc(-c2ccc3c(c2)CC[C@H]3N2CC3(CCN(C(=O)Cc4cn5ccccc5n4)CC3)C2)cc1 [Example 4E],
,,4.5 nM,3.77 nM,"O=C(Cc1ccc(C2CC2)cc1)N1CCC2(CC1)CN([C@@H]1CCc3cc(-c4ncccn4)ccc31)C2 [Example 5A-1, (R)-7-[(4-cyclopropylphenyl)acetyl]-2-(5-pyrimidin-2-yl-2,3-dihydro-1H-inden-1-yl)-2,7-diazaspiro[3.5]nonane]",
16.1 nM,,18.6 nM,,CCc1ccc(CC(=O)N2CCC3(CC2)CN([C@@H]2CCc4cc(-n5nccn5)ccc42)C3)nc1 [Example 5D],
,,18.6 nM,15.6 nM,Cc1ccc(CC(=O)N2CCC3(CC2)CN([C@@H]2CCc4cc(-c5ncccn5)ccc42)C3)cc1 [Example 5E],
,,12.8 nM,10.4 nM,CCc1ccc(CC(=O)N2CCC3(CC2)CN([C@@H]2CCc4cc(-c5ncccn5)ccc42)C3)cc1 [Example 5F],

"Ki [1, 3]",functional comment [2],IC50 [1],Ki [1],Molecule,"IC50 ([1]; SPA format, [125I] ghrelin displacement, human GHSR1a membranes from HEK293 Tetracycline-Inducible cell line)"
,,,54.8 nM,"Cc1ccc(CC(=O)N2CCC3(CC2)CN([C@@H]2CCc4cc(-n5nccn5)ccc42)C3)nc1 [Example 6A, 7-[(5-methylpyridin-2-yl)acetyl]-2-[5-(2H-1,2,3-triazol-2-yl)-2,3-dihydro-1H-inden-1-yl]-2,7-diazaspiro[3.5]nonane]",
,,43.2 nM,34.4 nM,CCOc1ccc(CC(=O)N2CCC3(CC2)CN([C@@H]2CCc4cc(-n5nccn5)ccc42)C3)nc1 [Example 6G],
,,483 nM,417 nM,COc1ccc(CC(=O)N2CCC3(CC2)CN([C@@H]2CCc4cc(-n5cncn5)ccc42)C3)nc1 [Example 6I],
,,327 nM,264 nM,COc1ccc(CC(=O)N2CCC3(CC2)CN([C@@H]2CCc4cc(-c5nnc(C)s5)ccc42)C3)nc1 [Example 6J],
,,42.2 nM,37.5 nM,Cc1ccc(CC(=O)N2CCC3(CC2)CN([C@@H]2CCc4cc(-c5ncccn5)ccc42)C3)c(C(N)=O)c1 [Example 7A],
,,25.5 nM,22.2 nM,COc1ccc(CC(=O)N2CCC3(CC2)CN([C@@H]2CCc4cc(-c5ncccn5)ccc42)C3)c(C(N)=O)c1 [Example 7B],
,,29 nM,24.7 nM,"COc1ccc(CC(=O)N2CCC3(CC2)CN([C@@H]2CCc4cc(-n5cc(C)cn5)ccc42)C3)nc1 [Example 8A, 7-[(5-methoxypyridin-2-yl)acetyl]-2-[(1R)-5-(4-methyl-1H-pyrazol-1-yl)-2,3-dihydro-1H-inden-1-yl]-2,7-diazaspiro[3.5]nonane]",
,,10.5 nM,8.97 nM,COc1ccc(CC(=O)N2CCC3(CC2)CN([C@@H]2CCc4cc(-n5cc(C)cn5)ccc42)C3)cc1 [Example 8B],
,,82.3 nM,66.4 nM,COc1ccc(CC(=O)N2CCC3(CC2)CN([C@@H]2CCc4cc(-n5cccn5)ccc42)C3)nc1 [Example 8C],
,,55.2 nM,47.5 nM,COc1ccc(CC(=O)N2CCC3(CC2)CN([C@@H]2CCc4cc(-c5ccc(C(N)=O)nc5)ccc42)C3)nc1 [Example 9B],
,,117 nM,102 nM,Cc1ccc(CC(=O)N2CCC3(CC2)CN([C@@H]2CCc4cc(-c5ccc(C(N)=O)nc5)ccc42)C3)nc1 [Example 9C],
,,12.2 nM,10.6 nM,Cc1cn2cc(CC(=O)N3CCC4(CC3)CN([C@@H]3CCc5cc(-c6ccc(C(N)=O)nc6)ccc53)C4)nc2s1 [Example 9D],
,,33.7 nM,29.2 nM,NC(=O)c1ccc(-c2ccc3c(c2)CC[C@H]3N2CC3(CCN(C(=O)Cc4cn5ccccc5n4)CC3)C2)cn1 [Example 9E],
,,62.6 nM,55.5 nM,"COc1ccc(CC(=O)N2CCC3(CC2)CN([C@@H]2CCc4cc(-c5cnc(C(N)=O)cn5)ccc42)C3)nc1 [Example 10A, 5-[(1R)-1-{7-[(5-methoxypyridin-2-yl)acetyl]-2,7-diazaspiro[3.5]non-2-yl}-2,3-dihydro-1H-inden-5-yl]pyrazine-2-carboxamide]",
,,23.4 nM,20.3 nM,Cc1ccn2cc(CC(=O)N3CCC4(CC3)CN([C@@H]3CCc5cc(-c6cnc(C(N)=O)cn6)ccc53)C4)nc2c1 [Example 10B],
,,93.1 nM,80.8 nM,NC(=O)c1cnc(-c2ccc3c(c2)CC[C@H]3N2CC3(CCN(C(=O)Cc4cn5ccccc5n4)CC3)C2)cn1 [Example 10C],
,,94.7 nM,82.9 nM,COc1ccc(CC(=O)N2CCC3(CC2)CN([C@@H]2CCc4cc(-c5cc(C(N)=O)ncn5)ccc42)C3)nc1 [Example 10D],
,,141 nM,123 nM,CCc1ccc(CC(=O)N2CCC3(CC2)CN([C@@H]2CCc4cc(-c5cnc(C(N)=O)cn5)ccc42)C3)nc1 [Example 10H],
,,33.3 nM,28.6 nM,"COc1ccc(CC(=O)N2CCC3(CC2)CN([C@@H]2CCc4cc(-c5ccc(C(N)=O)cn5)ccc42)C3)nc1 [Example 11A, 6-((R)-1-{7-[2-(5-Methoxy-pyridin-2-yl)-acetyl]-2,7-diaza-spiro[3.5]non-2-yl}indan-5-yl)-nicotinamide]",

Molecule,"Ki [1, 3]",functional comment [2],IC50 [1],Ki [1],"IC50 ([1]; SPA format, [125I] ghrelin displacement, human GHSR1a membranes from HEK293 Tetracycline-Inducible cell line)"
"5-{(1R)-1-[7-(2,3-dihydro[1,4]dioxino[2,3-b]pyridin-6-yl)acetyl)-2,7-diazaspiro[3.5]non-2-yl]-2,3-dihydro-1H-inden-5-yl}pyridine-2-carboxamide [Example 9A]",13.9 nM,inverse agonist,,,15.9 nM
